Patent US20200397860A1, “SLIT AND BONE GROWTH MODULATION” (Cornell University, priority 2018, published 2020)

Key:
[1] = tested on: bone marrow endothelial progenitor outgrowth cells (EPOCs); test: Matrigel tube formation assay; format: cell-based, mouse; conditions: EPOCs transduced with YAP shRNA
Experimental: Mouse bone marrow derived late-stage endothelial progenitor outgrowth cells (EPOCs) were obtained from BioChain (7030031) and cultured in growth medium (BioChain Z7030035) as described previously (Xie et al. 2014). Endothelial cell migration assay was set up in Trans well-24 well plates with 8-um pore filters. Briefly, 1×10^5 cells/well after 1-hour serum starvation were seeded in the upper chamber, then incubated with conditioned medium from osteoblasts and control in the lower chambers for a further 3 h. The cells in the upper surface of each filter were removed with cotton swabs. The cells that migrated into the lower surface were fixed with 4% PFA for 30 min and then stained with crystal violet. The cell numbers were quantified by counting a centered microscope field per each filter (5 wells for each condition). Endothelial cell wound healing assays were conducted in 12-well plates precoated with gelatin (Stemcell Technologies). 3×10^5 cells/well were plated overnight and stimulated with a wound in the form of a single linear scratch made with a yellow pipette tip. After gently washing the well twice, cells were cultured in medium with SLIT3 or vehicle. At 6 and 12 hours after injury, cells were stained by 0.5% crystal violet and photographed. The width of the wound area was quantitatively evaluated using ImageJ (see website at rsb.info.uih.gov/ij/download.html). Endothelial cell proliferation assays were conducted in 96-well plates pre-coated with gelatin (Stemcell Technologies). EPOCs (3×10^4 cells/well) were seeded in the medium with a serial dilution of SLIT3 protein or vehicle in plates. At 0, 24, 48 hours after seeding, cells were incubated with 10-fold diluted Alamar Blue solution (Thermo Fisher) and the supernatant was evaluated with a spectrophotometer (Thermo) (5 wells for each condition). Endothelial cell tube formation assay was conducted in 96-well plates pre-coated with Matrigel (BD). After 1 h serum starvation, EPOCs (3×10^4 cells/well) were seeded in conditioned medium dilution or control medium on polymerized Matrigel in plates. Alter 5 hours incubation at 37° C., the number of tube branches each well was observed and quantified by counting four random fields per well with microscopy (5 wells for each condition).

[2] = tested on: murine ovariectomy (OVX) model of postmenopausal osteoporosis; test: Ovariectomy (OVX) induced bone loss, prophylactic model; format: in vivo, mouse; conditions: L3 vertebrae
Experimental: Micro-CT (μCT) analysis was conducted on a Scanco Medical μCT 35 system at the Citigroup Biomedical Imaging Core using the previously described parameters. (Shim et al. 2013). μCT analysis was performed by an investigator blinded to the genotypes of the animals under analysis.
For histomorphometry, mice were injected with calcein (25 mg/kg, Sigma), and undecalcified sections of the lumbar vertebrae were stained using von Kossa and TRAP as described by Fukuda et al. (2013). Static and dynamic histomorphometric analysis was performed with using the Osteomeasure Analysis System (Osteometrics) following standard nomenclature as described (Dempster et al. 2013). Bone volume/total volume (BV/TV), bone formation rate/bone surface (BFR/BS, μm^3 […] yr^−1), mineral apposition rate (MM, um Day^−1), osteoblast surface/bone surface (Ob.S/BS, %) and osteoclast number/bone perimeter (No. OC/Bpm) were analyzed.
For the prophylactic model, 12-week-old female mice (JAX) were anesthetized and bilaterally ovariectomized or sham operated. Ovariectomized mice were given twice weekly intravenous injections of 1 mg per kg body weight of SLITS or vehicle or daily subcutaneous (sc) injections of 80 ug/kg PTH (1-34) for 6 weeks starting 2 weeks after ovariectomy. […] All mice were then randomly assigned to one of four groups: Sham, OVX+vehicle, OVX+SLITS and OVX+PTH. Three days after the last injection, all of the mice were euthanized and subjected to bone analysis as described earlier.

[3] = tested on: CD31^hiEMCN^hi endothelium; test: Flow cytometry of skeletal CD31hiEMCNhi endothelium in femurs after IV injection; format: in vivo, mouse; conditions: 8-week-old B6 mice, twice weekly IV 1 mg/kg, 21 days, femur
Experimental: Femur and tibia were dissected from mutant mice and control groups after removing surrounding connective tissues. The metaphysis region and diaphysis regions of bone was crushed in Hanks Balanced Salt Solution (Life Technologies) containing 10 mM HOPES (pH 7.2) (CellGro) and enzymatically digested with 2.5 mg/mL Collagenase A (Roche) and 1 unit/mL Dispase II (Roche) for 15 minutes at 37° C. under gentle agitation. The resulting cell suspensions were filtered (40 μm), washed using PBS (pH 7.2) containing 0.5% BSA (Fraction V) and 2 mM EDTA. After washing, equal numbers of cells per mouse were blocked with Purified Rat Anti-Mouse CD16/CD32 (BD Biosciences) for 30 min on ice, then stained with APC-conjugated EMCN antibody (ebioscience 50-5851-80), PE-conjugated CD31 (ebioscience 12-0311-81). FITC-conjugated CD45 (Tonbo 35-0451), APC/Cy7-conjugated Ter119 (Biolegend 116223) and PerCP-Cy5.5-conjugated CD146 (BD Biosciences 562231) for 45 min on ice. After washing, cells were resuspended in PBS (pH 7.2) with 2 mM EDTA and 1 μg/mL 4-6,Diamidino-2-Phenylindole (DAPI) (live/dead exclusion) for analysis on an LSRII flow cytometer system (BD Biosciences) cytometer and analyzed using FlowJo software (TreeStar). Cell sorting was performed with a FACS Aria II SORP cell sorter (Becton Dickinson) at Weill Cornell Medical College, with exclusion of DAPI^+ cells and doublets. […]

FGF2: FGF2, positive control inducer of tube formation [reference compound]
ability to induce tube formation after shRNA-mediated knockdown of YAP [1]: not

PTH: parathyroid hormone PTH (1-34), daily subcutaneous injections, comparator in OVX model (SVSEIQLMHNLGKHLNSMERVEWLRKKLQDVHNF; Parathyroid hormone; UniProt P01270 32-65, looked up, fragment) [reference compound]
endosteal CD31hiEMCNhi endothelium after OVX [2]: reversed the attenuation | endosteal bone formation [2]: rescued

SLIT2: recombinant SLIT2 protein, SLIT family ligand
levels of skeletal CD31hiEMCNhi endothelium in vivo [3]: increased formation
